Series [1] is described as follows: adsorption onto glass container in liquid form. The class given is physicochemical.
The subject of the next series is treated test animals. As to conditions: cited from earlier work.
For series [2] the following is noted: compared to human amylin; cited from earlier work.
The subject of series [3] is mice. As to conditions: mouse, in vivo. As for the experimental part:
The PCP-induced locomotion test is used with the open field activity chambers and measures locomotion, rearing, and stereotypic activity under amphetamine/PCP-induced conditions. The test has predictive validity for some antipsychotic drugs that normalize the hyperactivity and stereotypic behavior seen with amphetamine and PCP. See, for example, Williams et al. (2006) Prog. Neuropsychopharmacol. Biol. Psychiatry 30:239-243. Mice were injected with the test agent (rat amylin at 0.1, 1.0 or 10 mg/kg, 3 mg/kg clozapine (CZP), or vehicle) 15-30 minutes prior injection with 5 mg/kg PCP. The animals were then placed in the center of an open field and activity was recorded for 60 minutes. […] CZP is an atypical, second generation antipsychotic drug has a mixed receptor profile, including the dopamine receptor.

Series [4] has as its system mice. In words: marble burying. It counts as in vivo. How it is done: To confirm the interpretation of the findings outlined under Example 1, a variety of animal behavior assays were performed to test for anxiolytic, antidepressant, and antipsychotic effects of amylin administration. […] These specific behavioral tests are known to be sensitive to anxiolytic, antidepressant, or antipsychotic drugs. For these assays, rat amylin was administered to mice at doses ranging from 0.1 to 10 mg/kg, intraperitoneally or via a subcutaneously implanted osmotic pump (ALZET®) containing vehicle or rat amylin, and their performance in the assay was assessed.
Marble burying is used as a model for both anxiety and obsessive-compulsive disorder. See, for example, Chaki et al. (2003) J. Pharmacol. Exp. Ther. 304:818-826. Anxiolytics suppress marble burying activity. Mice were injected with the test agent (rat amylin at 0.1, 1.0 or 10 mg/kg, […] buspirone, or vehicle) 15-30 minutes prior to the test. Mice were then placed individually in clean cages containing 5-cm of hard wood bedding and 20 marbles spaced evenly in rows of five. The number of marbles buried in 30 minutes was recorded. […] Buspirone is a partial 5-HT1A agonist and an known anxiolytic agent.

Series [5] can be described thus: weight gain induced by clozapine. It counts as in vivo, rats. The conditions noted are these: clozapine 0.025 and 0.25 mg/kg/day, s.c. osmotic pumps, 4 weeks; diet 58% kcal from fat; FIG. 7A.
Description: The effect of amylin administration on weight gain induced by the second generation antipsychotic clozapine was examined. Adult, male Sprague-Dawley® rats (diet=58% kcal from fat) were implanted subcutaneously in the interscapular region with osmotic pumps that continuously delivered vehicle or drug for 4 weeks. In one experiment, rats were treated with vehicle or clozapine (0.025 and 0.25 mg/kg/day).
The subject of series [6] is mice. In words: prepulse inhibition (PPI) test. It counts as in vivo. The conditions noted are these: amylin at 10 mg/kg, haloperidol at 1 mg/kg; all prepulse levels (74, 78, and 82 dB); FIG. 5. From the text:
The prepulse inhibition (PPI) test measures the reflex response to externally applied auditory stimulation (acoustic startle response) and is related to the deficiency in sensory-motor gating capacity seen in schizophrenia. The acoustic startle reflex is a very basic response to strong exteroceptive stimuli and is widely used to assess sensorimotor reactivity in animals and humans. A weak auditory stimulus (prepulse, 74-82 dB) given prior to the strong acoustic stimulus (120 dB) blunts the startle response. This blunting of the startle response is referred to as prepulse inhibition. See, for example, Conti et al (2005) Behavioral Neuroscience 119: 1052-1060. Antipsychotics increase the ability of the prepulse stimulus to blunt the startle response to the strong stimulus. Some psychotomimetic agents, such as phencyclidine (PCP) and ketamine, can actually reduce the percent prepulse inhibition and stimulate a psychotic-like state in animals, which can be antagonized by antipsychotic agents.
Mice were injected with the test agent (rat amylin at 0.1, 1.0 or 10 mg/kg, or vehicle) […] prior to the test or with haloperidol at 1 mg/kg 30 minutes prior to the test. The mice were placed into an animal holder and the holder placed onto a transducer platform in an acoustic chamber. […] The amount of the animal's “reaction” to the strong stimulus was recorded. […]

Series [7] deals with mice. Kind of series: novel object recognition. It counts as in vivo. The conditions noted are these: rolipram 0.1 mg/kg IP 30 minutes prior to training; test 24 hours later; FIG. 8. As for the experimental part:
Since cognitive impairment is associated with psychoses, the effect of amylin administration on novel object recognition was examined. The novel object recognition task was used to measure working memory. See, for example, Miyamoto et al (2005) J. Neuroscience 25:1826-1835. Generally, animals spend less time exploring a previously presented object and more time exploring a novel object when both are presented together. Mice were injected IP with the test agent (rat amylin at 1.0 or 10 mg/kg, 0.1 mg/kg rolipram, or vehicle) 30 minutes prior to the training session. In the training, the mouse was allowed to explore two novel objects placed in the center of an open field. The time spent exploring each object was recorded. The objects differed in color, shape, and texture. Twenty-four hours after the training session, the mouse was placed back in the same open field in which one of the now familiar objects used in the training session was replaced by a novel object. The time spent exploring each object was again recorded. The memory index (or discrimination index) is the time spent exploring the novel object over the total time spent exploring both the novel and familiar objects (times 100). Results of this assay are shown in FIG. 8 where * is P<0.05 vs. vehicle.

As to `CC[C@H](C)[C@H](NC(=O)[C@@H]1CCCN1C(=O)CNC(=O)[C@H](Cc1ccccc1)NC(=O)[C@H](CC(N)=O)NC(=O)[C@H](CC(N)=O)NC(=O)[C@H](CO)NC(=O)[C@H](CO)NC(=O)[C@H](Cc1c[nH]cn1)NC(=O)[C@@H](NC(=O)[C@H](CC(C)C)NC(=O)[C@H](Cc1ccccc1)NC(=O)[C@H](CC(N)=O)NC(=O)[C@H](C)NC(=O)[C@H](CC(C)C)NC(=O)[C@H](CCCNC(=N)N)NC(=O)[C@H](CCC(N)=O)NC(=O)[C@@H](NC(=O)[C@H](C)NC(=O)[C@@H]1CSSC[C@H](NC(=O)[C@@H](N)CCCCN)C(=O)N[C@@H](CC(N)=O)C(=O)N[C@@H]([C@@H](C)O)C(=O)N[C@@H](C)C(=O)N[C@@H]([C@@H](C)O)C(=O)N1)[C@@H](C)O)C(C)C)C(=O)N[C@@H](CC(C)C)C(=O)N1CCC[C@H]1C(=O)N1CCC[C@H]1C(=O)N[C@H](C(=O)N[C@@H](CC(N)=O)C(=O)N[C@H](C(=O)NCC(=O)N[C@@H](CO)C(=O)N[C@@H](CC(N)=O)C(=O)N[C@H](C(=O)N[C@@H](Cc1ccc(O)cc1)C(N)=O)[C@@H](C)O)C(C)C)[C@@H](C)O` [^25,28,29Pro-h-amylin], in series [1], the “tendency to adsorb onto glass” value was “does not have a tendency to adsorb onto the glass”. In the series with treated test animals, the “amylin activity in vivo” value is given as “provoking marked hyperlactemia followed by hyperglycemia”. Besides, the stability characteristics result in series [2] is listed as “more desirable”.

Turning to `CC(C)C[C@H](NC(=O)[C@H](CC(N)=O)NC(=O)[C@H](CC(N)=O)NC(=O)[C@H](CO)NC(=O)[C@H](CO)NC(=O)[C@H](CCCNC(=N)N)NC(=O)[C@@H](NC(=O)[C@H](CC(C)C)NC(=O)[C@H](Cc1ccccc1)NC(=O)[C@H](CC(N)=O)NC(=O)[C@H](C)NC(=O)[C@H](CC(C)C)NC(=O)[C@H](CCCNC(=N)N)NC(=O)[C@H](CCC(N)=O)NC(=O)[C@@H](NC(=O)[C@H](C)NC(=O)[C@@H]1CSSC[C@H](NC(=O)[C@@H](N)CCCCN)C(=O)N[C@@H](CC(N)=O)C(=O)N[C@@H]([C@@H](C)O)C(=O)N[C@@H](C)C(=O)N[C@@H]([C@@H](C)O)C(=O)N1)[C@@H](C)O)C(C)C)C(=O)NCC(=O)N1CCC[C@H]1C(=O)N[C@H](C(=O)N[C@@H](CC(C)C)C(=O)N1CCC[C@H]1C(=O)N1CCC[C@H]1C(=O)N[C@H](C(=O)N[C@@H](CC(N)=O)C(=O)N[C@H](C(=O)NCC(=O)N[C@@H](CO)C(=O)N[C@@H](CC(N)=O)C(=O)N[C@H](C(=O)N[C@@H](Cc1ccc(O)cc1)C(N)=O)[C@@H](C)O)C(C)C)[C@@H](C)O)C(C)C` [amylin], in the series on mice [3], the “baseline activity, agent alone” value is given as “did not affect baseline activity”.

In the case of `O=C1CC2(CCCC2)CC(=O)N1CCCCN1CCN(c2ncccn2)CC1` [buspirone], the “reduction in marble burying, significance” value with mice [4] (amylin at 10 mg/kg, buspirone at 20 mg/kg, P<0.05) was “statistically significant”. Besides, in the series on mice [4] (rat amylin 0.1, 1.0 or 10 mg/kg, buspirone 20/kg, 15-30 minutes prior, FIG. 3), the “number of marbles buried in 30 minutes” value is “reduced the number of marbles buried”.

Turning to `CN1CCN(C2=Nc3cc(Cl)ccc3Nc3ccccc32)CC1` [clozapine], the “baseline activity, agent alone” value in the series on mice [3] is recorded as “did affect baseline activity”. In series [5], the “weight gain compared to vehicle-treated rats” value was “increased weight gain”.

For the compound `O=C(CCCN1CCC(O)(c2ccc(Cl)cc2)CC1)c1ccc(F)cc1` [haloperidol], the “percent of prepulse inhibition” value with mice [6] is recorded as “significantly increased the percent of prepulse inhibition”.

Take `COc1ccc(C2CNC(=O)C2)cc1OC1CCCC1` (centres unmarked) [rolipram]: in the series with mice [7], the “relative time exploring the novel object (memory index), in words” value is given as “increased the relative time exploring the novel object”.

Consider “^18Arg^25,28Pro-h-amylin (KCNTATCATQRLANFLVRSSNNFGPILPSTNVGSNTY) [human amylin analog of formula I]”, for which the “amylin activity in vivo” value in the series on treated test animals was “provoking marked hyperlactemia followed by hyperglycemia”.

“^28Pro-h-amylin (KCNTATCATQRLANFLVHSSNNFGAILPSTNVGSNTY) [human amylin analog of formula I]”: in the series with treated test animals, the “amylin activity in vivo” value is listed as “provoking marked hyperlactemia followed by hyperglycemia”.

Regarding “des-^1Lys-h-amylin (CNTATCATQRLANFLVHSSNNFGAILSSTNVGSNTY) [human amylin analog of formula I]”, the “amylin activity in vivo” value in the series on treated test animals is on record as “provoking marked hyperlactemia followed by hyperglycemia”.

For “des-^1Lys^18Arg^25,28Pro-h-amylin (CNTATCATQRLANFLVRSSNNFGPILPSTNVGSNTY) [human amylin analog of formula I]”, the “amylin activity in vivo” value in the series with treated test animals is on record as “provoking marked hyperlactemia followed by hyperglycemia”.

The values above are taken from US20090181890A1, “Amylin and Amylin Agonists for Treating Psychiatric Diseases and Disorders” (Amylin Pharmaceuticals , Inc., priority 2006, published 2009).
